{
  "source": "paper PMC7649969",
  "about": "“Pyrazolyl-pyrimidones inhibit the function of human solute carrier protein SLC11A2 (hDMT1) by metal chelation” (RSC Medicinal Chemistry, 2020)",
  "key": {"[1]": {"biological_target": "T1, hDMT1 (Homo sapiens, UniProt P49281)", "T1 sequence (P49281 1-568)": "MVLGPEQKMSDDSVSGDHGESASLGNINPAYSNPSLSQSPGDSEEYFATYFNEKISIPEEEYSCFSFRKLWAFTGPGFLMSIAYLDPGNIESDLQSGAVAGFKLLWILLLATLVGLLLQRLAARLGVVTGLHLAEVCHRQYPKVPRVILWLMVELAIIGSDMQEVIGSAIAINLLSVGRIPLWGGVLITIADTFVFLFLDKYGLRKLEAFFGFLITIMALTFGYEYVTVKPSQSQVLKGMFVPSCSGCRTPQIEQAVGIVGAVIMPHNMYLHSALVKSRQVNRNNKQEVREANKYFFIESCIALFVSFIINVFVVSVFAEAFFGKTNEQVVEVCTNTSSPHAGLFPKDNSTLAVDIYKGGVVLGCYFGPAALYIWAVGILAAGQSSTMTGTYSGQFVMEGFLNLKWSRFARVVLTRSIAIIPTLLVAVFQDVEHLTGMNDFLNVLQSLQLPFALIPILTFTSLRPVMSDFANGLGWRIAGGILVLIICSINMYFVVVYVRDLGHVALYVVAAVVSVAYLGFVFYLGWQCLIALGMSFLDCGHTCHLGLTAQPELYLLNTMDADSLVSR", "assay": "55Fe2+ uptake in Xenopus laevis oocytes overexpressing hDMT1", "type": "cell-based", "parameters": "DsRED; expressed in transfected cells; host or cells: HEK293T (ATCC CRL-3216), transient transfection with Lipofectamine 2000", "conditions": "compound 10 μM, 55Fe2+ 20 μM", "protocol": "Fig. 3 Characterization of Fe^2+ transport inhibition by 1 and 13 in X. laevis oocytes (collected from frogs under license number BE60/18 conceded by the Veterinärdienst des Kantons BE, Sekretariat Tierversuche). (a) Upper panel: Average ^55Fe^2+-uptake (20 μM) by hDMT1-expressing and non-injected oocytes in the absence and the presence of the indicated compounds (10 μM). Data was normalized to ^55Fe^2+-uptake (pmol min^–1) in the absence of compounds represented as mean ± SD (16–29 oocytes). Lower panel: Net uptake of ^55Fe^2+ (20 μM) by hDMT1 in the absence and the presence of the indicated compounds (10 μM). For each batch of oocytes, uptake values were corrected for unspecific iron uptake in non-injected oocytes. Data were normalized to the mean iron uptake by hDMT1 WT (pmol min^–1) and represented as mean ± SD (14–34 oocytes). (b and c) Electrophysiology. […] For each trace, recorded currents were corrected for the background currents observed without substrate. (b) Representative traces recorded with hDMT1 injected oocytes (upper panel) and non-injected oocytes (lower panel). […] Statistical differences were assessed using T-test or Mann–Whitney U test (Fe^2+-uptake by hDMT1 WT vs. non-injected oocytes or vs. compound); p > 0.05 = ns; p < 0.001 = ***. […]"}, "[2]": {"assay": "isothermal titration calorimetry with Cd2+", "type": "binding", "conditions": "pH 7.4, 25 °C, read-out: apparent dissociation constant KD"}, "[3]": {"assay": "calcein quenching (competition) assay to detect Fe2+ chelation", "conditions": "pH 5.5, 2 μM Fe2+, 1 μM calcein"}, "[4]": {"assay": "solubility noted at HPLC purity determination", "type": "physicochemical", "protocol": "Table S3: Purity of the final compounds.\nCompound Retention time Purity [%] HPLC\naMethod A: in 2.2 min from 100 % A to 10 0% D, then staying at 100 % D. Method B: in 7.5 min from 10 0% A to 100 % D,"}},
  "data": [
    {"smiles": "N=C(N)SCc1cccc2c1oc1c(CSC(=N)N)cccc12", "note": "[Compound 1, reference compound]", "values": [
      {"measurement": "inhibition of radioactive iron uptake in oocytes", "setting": "[1]", "result": "totally inhibited"}
    ]},
    {"smiles": "Cc1cc(=O)[nH]c(-n2nc3c(c2C)CCCC3)n1", "note": "[Compound 13]", "values": [
      {"measurement": "inhibition at 10 µM", "setting": "[1]; read-out: inhibition of radioactive iron uptake in oocytes", "result": 50, "unit": "%"},
      {"measurement": "Kd", "setting": "[2]", "result": 6.4, "unit": "µM"},
      {"measurement": "iron chelation in calcein competition assay", "setting": "[3]", "result": "significant level of iron chelation"}
    ]},
    {"smiles": "Cc1nn(-c2ccccn2)c(O)c1C(=O)Nc1cccc(C(F)(F)F)c1", "note": "[Compound 3, reference compound]", "values": [
      {"measurement": "solubility in water and acetonitrile", "setting": "[4]", "result": "not soluble in water and acetonitrile"}
    ]}
  ]
}
